Assay results as given in patent publication US20220274927A1, “MEMBRANE-ACTIVE ANTI-BACTERIAL COMPOUNDS AND USES THEREOF” (Trustees of Dartmouth College, priority 2019, published 2022).
≈ marks a conversion by molar mass, not a printed value. Like-named read-outs stand apart in the source and are kept apart here.

Tests used:
[1] = tested on: S. aureus membranes (versus erythrocyte membranes); assay: in vitro; type: cell-based, sheep; conditions: sheep
Procedure: (§1) FIG. 8 illustrates percent hemolysis analysis of sheep erythrocytes. Concentration-dependent hemolysis was measured by monitoring the optical density (OD)540 of PBS-washed sheep erythrocytes. Complete hemolysis (100%) was confirmed by treatment of erythrocytes with Triton X-100. Data points represent the mean±SD of triplicate experiments.
(§2) The macromolecular synthesis assay, TEM, and FM experiments were all consistent with membrane disruption. […] The high membrane selectivity of the 5-aminoquinolin-4-ones in this assay is impressive and is in accordance with the observed therapeutic index (CC50/MIC).

[2] = tested on: methicillin-resistant S. aureus (FPR3757); assay: MIC against clinical MRSA strain FPR3757 in Mueller-Hinton broth (CLSI); type: cell-based, Staphylococcus aureus; conditions: MRSA clinical strain FPR3757, Mueller-Hinton broth, CLSI guidelines, complete inhibition of observable growth
Description: The first set of compounds evaluated were analogs at the C-7 and C-8 positions of the initial quinolone hit DNAC-2 since the other HTS hits identified (data not shown) were substituted at these positions (Table 1). Applicants first explored modification at the C-7 position with a small series of electron-donating and withdrawing substituents. […] However, analogs containing electron donating groups at C-7 including ethyl 7, benzyloxy 8, methoxy 9 and methylthio 10 are weakly active displaying MICs of 320-640 μg/mL indicating electron-donating substituents at C-7 are poorly tolerated. […] The C-8 position was evaluated with trifluoromethyl 4 and trifluoromethoxy 5 containing the optimal C-7 substituents. Both 4 and 5 are equipotent to the corresponding C-7 analogs 2 and 3 indicating some flexibility of the quinolone scaffold.

[3] = tested on: erythrocyte membranes (versus S. aureus membranes); assay: in vitro; type: cell-based, sheep; conditions: sheep; read-out: selectivity for S. aureus membranes over erythrocyte membranes
Procedure: as §1, §2

sheep erythrocytes = assay: in vitro; type: cell-based
Procedure: as §1, §2

[4] = Staphylococcus aureus, MRSA, read-out: MIC

O=c1cc(C(F)(F)F)[nH]c2cc(C(F)(F)F)cc(Nc3ccc(F)c(F)c3)c12 [Compound 109]
selectivity ratio [1]: > 500
MIC [2, 4]: < 0.06 µg/mL

O=c1cc(C(F)(F)F)[nH]c2cc(C(F)(F)F)cc(Nc3cccc(OC(F)(F)F)c3)c12 [Compound 110]
selectivity ratio [3]: > 500
MIC [2, 4]: 0.06 to 0.12 µg/mL (≈ 0.132 to 0.263 µM)

O=c1cc(C(F)(F)F)[nH]c2cc(C(F)(F)F)cc(Nc3ccc(F)cn3)c12 [Compound 112]
MIC [2, 4]: 0.12 µg/mL (≈ 0.307 µM)

CN(C)c1ccc(Nc2cc(C(F)(F)F)cc3[nH]c(C(F)(F)F)cc(=O)c23)nc1 [Compound 113]
MIC [2]: 2 µg/mL (≈ 4.8 µM)
MIC [2, 4]: 1 to 2 µg/mL (≈ 2.4 to 4.8 µM)

O=c1cc(C(F)(F)F)[nH]c2cc(C(F)(F)F)cc(-c3ccc(C(F)(F)F)nn3)c12 [Compound 114]
MIC [2]: 1 µg/mL (≈ 2.34 µM)
MIC [2, 4]: 1 to 2 µg/mL (≈ 2.34 to 4.68 µM)

CN(C)S(=O)(=O)c1ccc(Nc2cc(C(F)(F)F)cc3[nH]c(C(F)(F)F)cc(=O)c23)nc1 [Compound 115]
MIC [2]: 2 µg/mL (≈ 4.16 µM)

O=c1cc(C(F)(F)F)[nH]c2cc(C(F)(F)F)cc(Nc3cccc4[nH]ncc34)c12 [Compound 116]
MIC [2]: 2 µg/mL (≈ 4.85 µM)
MIC [2, 4]: 1 to 2 µg/mL (≈ 2.43 to 4.85 µM)

O=c1cc(C(F)(F)F)[nH]c2cc(C(F)(F)F)cc(NC3CCC(C(F)(F)F)CC3)c12 (centres unmarked) [Compound 117]
selectivity ratio [1]: > 500
hemolysis (sheep erythrocytes; sheep, 32 μg/mL): None of the compounds except 76, displayed any hemolysis
MIC [2, 4]: < 0.06 µg/mL

O=c1cc(C(F)(F)F)[nH]c2cc(C(F)(F)F)cc(N3CCOCC3)c12 [Compound 118]
MIC [2, 4]: > 32 µg/mL

O=c1cc(C(F)(F)F)[nH]c2cc(Nc3ccc(Cl)c(Cl)c3)cc(C(F)(F)F)c12 [Compound 119]
MIC [2, 4]: 1 µg/mL (≈ 2.27 µM)

O=c1cc(C(F)(F)F)[nH]c2cc(Nc3ccc(F)c(F)c3)cc(C(F)(F)F)c12 [Compound 120]
MIC [2, 4]: 4 µg/mL (≈ 9.8 µM)

O=c1cc(C(F)(F)F)[nH]c2cc(Nc3ccc(C(F)(F)F)cn3)cc(C(F)(F)F)c12 [Compound 122]
MIC [2]: 4 µg/mL (≈ 9.07 µM)

Triton X-100 [reference compound]
lysis (positive control) (sheep erythrocytes): 100%
